Experimental data taken from article PMC9827972, “Identification of 2,4‐Dinitro‐Biphenyl‐Based Compounds as MAPEG Inhibitors” (Chemmedchem, 2022).
Like-named read-outs stand apart in the source and are kept apart here.

Key:
5‐LOX/FLAP interaction [1] = molecular target: T1, 5‐LOX/FLAP interaction (Homo sapiens, UniProt P20292); design: method as in PMID 24905297, PMID 28839250; conditions: HEK cells, same experimental conditions; cited from earlier work
T1 construct: expressed in transfected cells; host or cells: HEK293 cells stably transfected with 5-LOX and FLAP
T1 sequence (P20292 1-161): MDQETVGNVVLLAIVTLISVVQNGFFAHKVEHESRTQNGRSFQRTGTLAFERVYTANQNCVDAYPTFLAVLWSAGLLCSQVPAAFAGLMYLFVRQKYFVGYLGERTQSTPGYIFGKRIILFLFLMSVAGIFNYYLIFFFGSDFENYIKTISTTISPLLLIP

[2] = system: 5‐LOX product formation in human neutrophils; assay: 5-LOX product formation in intact human neutrophils stimulated with A23187 (FLAP-dependent); conditions: Neutrophil, read-out: IC50 cell‐based 5‐LOX
Experimental: Blood cell isolation and cultivation of cell lines. Human neutrophils were freshly isolated from peripheral blood obtained at the Institute for Transfusion Medicine of the University Hospital Jena (Germany) as described.[45] Briefly, human peripheral blood was collected in heparinized tubes (16 I. E. heparin/mL blood) by venipuncture from fasted (12 h) adult healthy volunteers, with consent, and leukocyte concentrates were prepared by centrifugation (4000×g, 20 min, 20 °C). The subjects had no apparent inflammatory conditions and had not taken anti‐inflammatory drugs for at least ten days prior to blood collection. Neutrophils were immediately isolated by dextran sedimentation and centrifugation on Nycoprep cushions (PAA Laboratories, Linz, Austria) and hypotonic lysis of erythrocytes was performed under hypotonic conditions. Neutrophils were finally resuspended in PBS pH 7.4 containing 1 mg/mL glucose and 1 mM CaCl2 (purity >96‐97 %).
5‐LOX activity assay. […] […] 30 μL 1 N HCl and 500 μL PBS, and 200 ng PGB1 were added and the samples were subjected to solid phase extraction on C18‐columns (100 mg, UCT, Bristol, PA, USA). 5‐LOX products (LTB4, all‐trans isomers of LTB4, and 5‐hydro(pero)xy‐6,8,11,14‐ eicosatetraenoic acid (5‐H(p)ETE) were analyzed by RP‐HPLC and quantities calculated referencing to the internal standard PGB1.

human recombinant LTC4S = molecular target: T2, human recombinant LTC4S (Homo sapiens, UniProt Q16873); assay: Determination of LTC4 synthase activity in microsomes of HEK293 cells expressing LTC4S; assay type: biochemical; conditions: for inhibition of LTC4S activity (in words): microsomal preparations of HEK293 cells expressing human recombinant LTC4S
T2 construct: expressed in transfected cells; host or cells: HEK293 cells stably expressing LTC4S; microsomal fraction
T2 sequence (Q16873 1-150): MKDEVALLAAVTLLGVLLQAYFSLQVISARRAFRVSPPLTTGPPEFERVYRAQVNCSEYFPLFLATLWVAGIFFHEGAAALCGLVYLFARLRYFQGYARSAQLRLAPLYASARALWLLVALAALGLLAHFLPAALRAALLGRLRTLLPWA
Experimental: Determination of LTC4 synthase activity. HEK293 cells stably expressing human recombinant LTC4S (HEK_LTC4S) were used to generate microsomes containing LTC4S. Briefly, HEK_LTC4S cells were frozen in liquid nitrogen and sonicated 3×20 s at 4 °C in homogenization buffer (0.1 M potassium phosphate buffer, pH 7.4, 1 mM phenylmethanesulfonylfluoride, 60 μg/mL soybean trypsin inhibitor, 1 μg/mL leupeptin, 2.5 mM glutathione, and 250 mM sucrose). Lysates were sequentially centrifuged at 10,000×g, 10 min at 4 °C and 174,000×g for 1 h at 4 °C. The microsomal fraction (2.5 μg) was resuspended in assay buffer (0.1 M potassium buffer pH 7.4, plus 5 mM glutathione) and preincubated with the test compound or vehicle (0.1 % DMSO) for 10 min at 4 °C. The reactions were started by adding 1 μM LTA4‐methyl ester (Cayman, Ann Arbor, MI) and stopped after 10 min incubation at 4 °C by 1 vol. ice‐cold methanol. Acidified PBS and LTC4‐methyl ester‐d5 as internal standard were added prior solid phase extraction, and LTC4‐methyl ester formation was analyzed by UPLC‐MS/MS as described.[43] UPLC‐MS/MS was carried out by Acquity UPLC BEH C18 column (1.7 μm, 2.1×50 mm, waters) and QTRAP 5500 Mass spectrometer (AB Sciex). LTC4‐methyl ester and LTC4‐d5 methyl ester (standard) were detected by multiple reaction monitoring in the negative ion mode by a method described previously.[44]
Reversed phase liquid chromatography and mass spectrometry. LTC4S metabolites were separated on an Acquity ultra performance liquid chromatography (UPLC) BEH C18 column (1.7 μm, 2.1×50 mm, Waters, Milford, MA) using an Acquity^TM UPLC system (Waters, Milford, MA, USA) as previously described.[42] The chromatography system was coupled to a QTRAP 5500 Mass Spectrometer (AB Sciex, Darmstadt, Germany) equipped with an electrospray ionization source. LTC4S metabolites were quantified by multiple reaction monitoring in the negative using a previously reported method with a lower limit of detection of 150 to 600 pg mL^−1 and linear quantification range up to 200 ng mL^−1.[22] Automatic peak integration was performed with ANALYST 1.6 software (Sciex, Darmstadt, Germany) using IntelliQuan default settings. Data were normalized on the internal standard PGB1 and are given as relative intensities.

5‐LOX/FLAP interaction [3] = molecular target: T1, 5‐LOX/FLAP interaction; assay: In situ proximity ligation assay of 5-LOX/FLAP interaction in HEK293 cells; assay type: cell-based; conditions: HEK293 cells expressing 5-LOX and FLAP, 2.5 μM A23187; 1 d 3 μM
Experimental: Cell culture. The human embryonic kidney cell line HEK293 was cultured as monolayer at 37 °C and 5 % CO2 in DMEM High glucose containing 10 % heat‐inactivated fetal calf serum (FCS), 100 U/mL penicillin and 100 μg/mL streptomycin. HEK293 cells stably expressing human recombinant 5‐LOX and FLAP were selected by 400 μg/mL geneticin and 200 μg/mL hygromycin B, respectively, as described before.[21]
Analysis of 5‐LOX/FLAP interaction by in situ proximity ligation assay. The manufacturer's protocol[46] for proximity ligation assay was used to detect in situ interaction of 5‐LOX with FLAP in HEK293 cells stably expressing both proteins as reported elsewhere.[24] Cells were pretreated with test compounds for 10 min at 37 °C, then treated with 2.5 μM Ca^2+‐ionophore A23187 for another 10 min, fixed, and incubated with primary antibody overnight as described before.[24] Samples were then incubated for 1 h (37 °C) with species‐specific secondary antibodies conjugated with oligonucleotides (PLA probe anti‐mouse MINUS and anti‐rabbit PLUS). The antibody‐bound oligonucleotides formed a DNA circle by addition of ligase (30 min, 37 °C). […] Protein‐protein‐interactions occurred as magenta fluorescent spots analyzed with an Axiovert 200 M microscope (Carl Zeiss) and a Plan Neofluar×40/1.3 Oil (DIC III) objective (Carl Zeiss).

human recombinant 5‐LOX = molecular target: T3, human recombinant 5‐LOX (Homo sapiens, UniProt P09917); assay: Human recombinant 5-LOX activity assay (cell-free); assay type: biochemical; conditions: 20 μM arachidonic acid
T3 construct: made in house; host or cells: Escherichia coli BL21 (DE3)
T3 sequence (P09917 1-674): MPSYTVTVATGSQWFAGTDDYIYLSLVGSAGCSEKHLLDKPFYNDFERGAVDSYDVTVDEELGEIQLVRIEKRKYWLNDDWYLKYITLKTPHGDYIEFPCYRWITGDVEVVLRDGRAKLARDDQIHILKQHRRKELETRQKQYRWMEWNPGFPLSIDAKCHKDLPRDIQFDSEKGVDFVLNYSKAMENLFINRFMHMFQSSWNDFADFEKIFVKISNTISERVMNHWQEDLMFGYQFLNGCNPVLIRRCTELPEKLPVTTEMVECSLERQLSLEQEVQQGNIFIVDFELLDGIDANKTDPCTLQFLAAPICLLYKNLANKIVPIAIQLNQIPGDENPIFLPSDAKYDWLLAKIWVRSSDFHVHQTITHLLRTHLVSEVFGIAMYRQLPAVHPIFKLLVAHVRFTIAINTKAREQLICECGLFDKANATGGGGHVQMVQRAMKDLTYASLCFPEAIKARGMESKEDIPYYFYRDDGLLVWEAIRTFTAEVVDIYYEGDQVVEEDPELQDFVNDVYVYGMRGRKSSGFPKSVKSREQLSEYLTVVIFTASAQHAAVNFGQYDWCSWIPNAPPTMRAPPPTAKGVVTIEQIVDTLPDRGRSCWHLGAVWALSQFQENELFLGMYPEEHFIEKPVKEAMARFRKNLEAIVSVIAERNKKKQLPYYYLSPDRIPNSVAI
Experimental: Human recombinant 5‐LOX activity assay. Human recombinant 5‐LOX was expressed in Escherichia coli (E. coli BL21 (DE3)) cells and partially purified by affinity chromatography using an ATP‐agarose column as described.[22] Semi‐purified 5‐LOX (specific activity: 1.6 ± 0.2 μg 5‐LOX products per μg protein) was diluted in PBS containing EDTA (1 mM) and ATP (1 mM) to a concentration of 0.5 μg mL^−1 and immediately pre‐incubated with the test compounds (1 μL in DMSO; final DMSO concentration: 0.1 %) for 10 min at 4 °C. Samples were pre‐warmed for 30 s at 37 °C, and 5‐LOX product formation was initiated adding 2 mM CaCl2 and 20 μM arachidonic acid. The reaction was stopped after 10 min at 37 °C adding 1 mL ice‐cold methanol. Formed 5‐LOX metabolites (all‐trans isomers of LTB4 and 5‐H(p)ETE) were extracted and an aliquot of 50 μL analyzed by reversed phase‐HPLC (RP‐HPLC) as described.[23] Data were normalized to the vehicle control to avoid variations independent of test compounds.

mPGES‐1 [4] = molecular target: T4, mPGES‐1 (Homo sapiens, UniProt O14684); assay: mPGES-1 washout assay in microsomes of A549 cells; assay type: biochemical; conditions: for residual mPGES-1 enzyme activity: % of vehicle control
T4 construct: Microsomes derived from A549 cells expressing mPGES‐1; endogenous in cells; host or cells: A549 cells (microsomes)
T4 sequence (O14684 1-152): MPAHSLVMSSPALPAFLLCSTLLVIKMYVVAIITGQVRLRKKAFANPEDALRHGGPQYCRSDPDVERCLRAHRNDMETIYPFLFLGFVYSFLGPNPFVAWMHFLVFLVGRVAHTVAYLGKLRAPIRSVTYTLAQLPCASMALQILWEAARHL
Experimental: mPGES‐1 washout assay. Microsomes derived from A549 cells expressing mPGES‐1 were incubated with low (1 μM) or high concentrations (10 μM) of compound 1 d. After 15 min an aliquot of the sample containing 10 μM 1 d was diluted 10‐fold with buffer to reach a final concentration of 1 μM. After another 5 min the substrate PGH2 (20 μM) was added. The reaction was stopped after 60 s to determine PGE2 formation. Washout data are presented as means of residual activity ± SD in % of vehicle treated control for n=3 independent experiments. Outliers were determined using Grubb's test (GraphPad Software, La Jolla, CA). Samples were not blinded.

mPGES‐1 [5] = molecular target: T4, mPGES‐1; conditions: cell-free; cited from earlier work

SMILES	inhibition of LTC4S activity (in words) (human recombinant LTC4S)	IC50 ([2]; Homo sapiens, 5 h) [µM]	IC50 (human recombinant LTC4S) [µM]	other results
CC(C)c1ccc2c(c1)c(SC(C)(C)C)c(CC(C)(C)C(=O)O)n2Cc1ccc(Cl)cc1 [MK886]	–	–	–	effect on 5‐LOX/FLAP interaction (PLA), earlier reports (5‐LOX/FLAP interaction [1]): does block the interaction
O=[N+]([O-])c1cc([N+](=O)[O-])c(-c2ccccc2COc2cccc(C(F)(F)F)c2)cc1F [1 d]	significantly inhibited LTC4S activity	–	–	IC50 ([2]; human neutrophils, 2.5 μM A23187, LTB4, its trans isomers and 5-H(p)ETE): 1.4 ± 0.09 µM; IC50 (human recombinant LTC4S; microsomes of HEK293 cells expressing human recombinant LTC4S, 1 μM LTA4-methyl ester, read-out: IC50 cell‐free LTC4S): 0.93 ± 0.04 µM; effect on 5‐LOX/FLAP interaction (PLA) (5‐LOX/FLAP interaction [3]): able to block the 5‐LOX/FLAP interaction; IC50 (human recombinant 5‐LOX): 3.35 ± 0.22 µM; residual mPGES-1 enzyme activity (mPGES‐1 [4]; 1 μM 1 d): 83.3%; residual mPGES-1 enzyme activity (mPGES‐1 [4]; 10 μM 1 d): 21.3%; mPGES-1 enzymatic activity after washout (mPGES‐1 [4]; 10-fold dilution from 10 to 1 μM): 72.5%; mechanism of mPGES-1 inhibition (mPGES‐1 [4]; washout experiment): reversible mechanism of inhibition
O=[N+]([O-])c1cc([N+](=O)[O-])c(-c2ccc(OCc3ccccc3)cc2)cc1F [1 b]	did not show inhibitory activity	> 100	> 100	IC50 (mPGES‐1 [5]): 0.6 ± 1.2 µM
COCCc1ccc(OCc2ccc(-c3cc(F)c([N+](=O)[O-])cc3[N+](=O)[O-])cc2)cc1 [1 e]	did not show inhibitory activity	3.31 ± 0.27	> 100	–
CC(c1cc2ccccc2s1)N(O)C(N)=O (stereo not drawn) [zileuton]	–	–	–	effect on 5‐LOX/FLAP interaction (PLA), earlier reports (5‐LOX/FLAP interaction [1]): inefficiency
O=[N+]([O-])c1cc([N+](=O)[O-])c(-c2ccc(COc3cccc4ccccc34)cc2)cc1F [1 c]	did not show inhibitory activity	4.18 ± 0.16	> 100	–
O=[N+]([O-])c1cc([N+](=O)[O-])c(-c2ccc(COc3cccc(C(F)(F)F)c3)cc2)cc1F [1 a]	significantly inhibited LTC4S activity	3.93 ± 0.24	1.68 ± 0.21	–
